Test results: ChEMBL document CHEMBL1151504, “Structure-activity relationships of double-strand RGD peptides as GPIIb/IIIa receptor antogonists” (Bioorg Med Chem Lett, 1994)
pIC50: −log10 of the molar value. Numbered stars: 1 amine (or outer) side, 2 acyl side, 3 side chain; on linkers, the order of the positions; unused ones are H or OH. Bridge positions count the residues as written; N and C are the ends. Square brackets hold non-standard residues; d marks the D form. Peptide text beside a SMILES is read from it. I, II: the chains in the order shown. * marks the point of attachment. Benzoyl(4-guanidino) = N=C(N)Nc1ccc(C(=O)*)cc1; X1 = NC(=O)c1cc(N[*:1])cc(N[*:2])c1; Adipoyl = O=C(CCCCC(=O)[*:2])[*:1]; Glutaryl = O=C(CCCC(=O)[*:2])[*:1]; Suc = O=C(CCC(=O)[*:2])[*:1]; X2 = O=C1Oc2ccccc2CC1C(=O)*; 3Abz = Nc1cccc(C(=O)O)c1; 4Abz = Nc1ccc(C(=O)O)cc1; 2Abz = Nc1ccccc1C(=O)O; Hexanoyl = CCCCCC(=O)*; Bz = O=C(c1ccccc1)*

Organism: Homo sapiens
Test: In vitro inhibition of ADP induced human platelet aggregation in platelet rich plasma(PRP) and presence of Tris buffer.
Format: functional

Row | SMILES | pIC50
1 | NCC(=O)N[C@@H](CCCN=C(N)N)C(=O)NCC(=O)N[C@@H](CC(=O)O)C(=O)N[C@@H](Cc1ccccc1)C(=O)NCC(=O)Nc1cc(NC(=O)CNC(=O)[C@H](Cc2ccccc2)NC(=O)[C@H](CC(=O)O)NC(=O)CNC(=O)[C@H](CCCN=C(N)N)NC(=O)CN)cc(C(=O)NCC(=O)N[C@@H](CCCN=C(N)N)C(=O)NCC(=O)N[C@@H](CC(=O)O)C(=O)N[C@@H](Cc2ccccc2)C(N)=O)c1 | 4.48
2 | NC(=O)[C@H](CCCCNC(=O)[C@H](Cc1ccccc1)NC(=O)[C@H](CC(=O)O)NC(=O)CNC(=O)[C@@H](N)CCCN=C(N)N)NC(=O)[C@H](Cc1ccccc1)NC(=O)[C@H](CC(=O)O)NC(=O)CNC(=O)[C@@H](N)CCCN=C(N)N | 4.46
3 | NC(N)=NCCC[C@H](NC(=O)C1CC(NC(=O)[C@H](Cc2ccccc2)NC(=O)[C@H](CC(=O)O)NC(=O)CNC(=O)[C@@H](N)CCCN=C(N)N)CC(NC(=O)[C@H](Cc2ccccc2)NC(=O)[C@H](CC(=O)O)NC(=O)CNC(=O)[C@@H](N)CCCN=C(N)N)C1)C(=O)NCC(=O)N[C@@H](CC(=O)O)C(=O)N[C@@H](Cc1ccccc1)C(=O)O (stereo partly specified) | 4.66
4 | NC(=O)C1CC(NC(=O)[C@H](Cc2ccccc2)NC(=O)[C@H](CC(=O)O)NC(=O)CNC(=O)[C@@H](N)CCCN=C(N)N)CC(NC(=O)[C@H](Cc2ccccc2)NC(=O)[C@H](CC(=O)O)NC(=O)CNC(=O)[C@@H](N)CCCN=C(N)N)C1 (stereo partly specified) | 4.30
5 | NCC(=O)N[C@@H](CCCN=C(N)N)C(=O)NCC(=O)N[C@@H](CC(=O)O)C(=O)N[C@@H](Cc1ccccc1)C(=O)NCC(=O)Nc1ccccc1C(=O)NCC(=O)N[C@@H](CCCN=C(N)N)C(=O)NCC(=O)N[C@@H](CC(=O)O)C(=O)N[C@@H](Cc1ccccc1)C(=O)O (H-GRGDFG[2Abz]GRGDF-OH) | 4.20
6 | NCC(=O)N[C@@H](CCCN=C(N)N)C(=O)NCC(=O)N[C@@H](CC(=O)O)C(=O)N[C@@H](Cc1ccccc1)C(=O)NCC(=O)Nc1cccc(C(=O)NCC(=O)N[C@@H](CCCN=C(N)N)C(=O)NCC(=O)N[C@@H](CC(=O)O)C(=O)N[C@@H](Cc2ccccc2)C(=O)O)c1 (H-GRGDFG[3Abz]GRGDF-OH) | 4.72
7 | NCC(=O)N[C@@H](CCCN=C(N)N)C(=O)NCC(=O)N[C@@H](CC(=O)O)C(=O)N[C@@H](Cc1ccccc1)C(=O)NCC(=O)Nc1ccc(C(=O)NCC(=O)N[C@@H](CCCN=C(N)N)C(=O)NCC(=O)N[C@@H](CC(=O)O)C(=O)N[C@@H](Cc2ccccc2)C(=O)O)cc1 (H-GRGDFG[4Abz]GRGDF-OH) | 4.46
8 | NC(=O)c1cc(NC(=O)CNC(=O)[C@@H]2CCCN2C(=O)[C@H](Cc2ccccc2)NC(=O)[C@H](CC(=O)O)NC(=O)CNC(=O)[C@@H](N)CCCN=C(N)N)cc(NC(=O)CNC(=O)[C@@H]2CCCN2C(=O)[C@H](Cc2ccccc2)NC(=O)[C@H](CC(=O)O)NC(=O)CNC(=O)[C@@H](N)CCCN=C(N)N)c1 (I: H-RGDFPG / II: H-RGDFPG; linker I:C-II:C via X1) | 4.89
9 | N=C(N)NCCC[C@H](NC(=O)CCCCC(=O)N[C@@H](CCCNC(=N)N)C(=O)NCC(=O)N[C@@H](CC(=O)O)C(=O)N[C@@H](Cc1ccccc1)C(=O)O)C(=O)NCC(=O)N[C@@H](CC(=O)O)C(=O)N[C@@H](Cc1ccccc1)C(=O)O (I: RGDF-OH / II: RGDF-OH; linker I:N-II:N via Adipoyl) | 4.85
10 | N=C(N)NCCC[C@H](NC(=O)CCCC(=O)N[C@@H](CCCNC(=N)N)C(=O)NCC(=O)N[C@@H](CC(=O)O)C(=O)N[C@@H](Cc1ccccc1)C(=O)O)C(=O)NCC(=O)N[C@@H](CC(=O)O)C(=O)N[C@@H](Cc1ccccc1)C(=O)O (I: RGDF-OH / II: RGDF-OH; linker I:N-II:N via Glutaryl) | 4.82
11 | N=C(N)NCCC[C@H](NC(=O)CCC(=O)N[C@@H](CCCNC(=N)N)C(=O)NCC(=O)N[C@@H](CC(=O)O)C(=O)N[C@@H](Cc1ccccc1)C(=O)O)C(=O)NCC(=O)N[C@@H](CC(=O)O)C(=O)N[C@@H](Cc1ccccc1)C(=O)O (I: RGDF-OH / II: RGDF-OH; linker I:N-II:N via Suc) | 4.82

Continued, values first:

Row | pIC50 | SMILES
12 | 5.59 | N=C(N)NCCC[C@H](NC(=O)c1ccccc1)C(=O)NCC(=O)N[C@@H](CC(=O)O)C(=O)N[C@@H](Cc1ccccc1)C(=O)NCCCC[C@H](NC(=O)[C@H](Cc1ccccc1)NC(=O)[C@H](CC(=O)O)NC(=O)CNC(=O)[C@H](CCCN=C(N)N)NC(=O)c1ccccc1)C(N)=O
13 | 6.46 | CCCCCC(=O)N[C@@H](CCCN=C(N)N)C(=O)NCC(=O)N[C@@H](CC(=O)O)C(=O)N[C@@H](Cc1ccccc1)C(=O)N1CCC[C@H]1C(=O)NCC(=O)Nc1cc(NC(=O)CNC(=O)[C@H]2CCCN2C(=O)[C@@H](Cc2ccccc2)NC(=O)[C@@H](CC(=O)O)NC(=O)CNC(=O)[C@@H](CCCN=C(N)N)NC(=O)CCCCC)cc(C(N)=O)c1
14 | 5.13 | N=C(N)NCCC[C@H](NC(=O)c1ccccc1)C(=O)NCC(=O)N[C@@H](CC(=O)O)C(=O)N[C@@H](Cc1ccccc1)C(=O)NC1CC(NC(=O)[C@H](Cc2ccccc2)NC(=O)[C@H](CC(=O)O)NC(=O)CNC(=O)[C@H](CCCN=C(N)N)NC(=O)c2ccccc2)CC(C(=O)N[C@@H](CCCN=C(N)N)C(=O)NCC(=O)N[C@@H](CC(=O)O)C(=O)N[C@@H](Cc2ccccc2)C(=O)O)C1 (stereo partly specified)
15 | 4.89 | N=C(N)NCCC[C@@H](NC(=O)c1ccccc1C(=O)N[C@@H](CCCN=C(N)N)C(=O)NCC(=O)N[C@@H](CC(=O)O)C(=O)N[C@@H](Cc1ccccc1)C(=O)O)C(=O)NCC(=O)N[C@H](CC(=O)O)C(=O)N[C@H](Cc1ccccc1)C(=O)O
16 | 5.64 | CCCCCC(=O)N[C@@H](CCCN=C(N)N)C(=O)NCC(=O)N[C@@H](CC(=O)O)C(=O)N[C@@H](Cc1ccccc1)C(=O)NCCCC[C@H](NC(=O)[C@H](Cc1ccccc1)NC(=O)[C@H](CC(=O)O)NC(=O)CNC(=O)[C@H](CCCN=C(N)N)NC(=O)CCCCC)C(N)=O
17 | 5.39 | CC(=O)N[C@@H](CCCN=C(N)N)C(=O)NCC(=O)N[C@@H](CC(=O)O)C(=O)N[C@@H](Cc1ccccc1)C(=O)N1CCC[C@H]1C(=O)NCCCC[C@H](NC(=O)[C@@H]1CCCN1C(=O)[C@H](Cc1ccccc1)NC(=O)[C@H](CC(=O)O)NC(=O)CNC(=O)[C@H](CCCN=C(N)N)NC(C)=O)C(N)=O (I: Ac-RGDFPK-NH2 / II: Ac-RGDFP; amide I:6-II:C)
18 | 5.66 | N=C(N)NCCC[C@H](NC(=O)c1ccccc1)C(=O)NCC(=O)N[C@@H](CC(=O)O)C(=O)N[C@@H](Cc1ccccc1)C(=O)N1CCC[C@H]1C(=O)NCCCC[C@H](NC(=O)[C@@H]1CCCN1C(=O)[C@H](Cc1ccccc1)NC(=O)[C@H](CC(=O)O)NC(=O)CNC(=O)[C@H](CCCN=C(N)N)NC(=O)c1ccccc1)C(N)=O (I: Bz-RGDFPK-NH2 / II: Bz-RGDFP; amide I:6-II:C)
19 | 5.92 | CCCCCC(=O)N[C@@H](CCCN=C(N)N)C(=O)NCC(=O)N[C@@H](CC(=O)O)C(=O)N[C@@H](Cc1ccccc1)C(=O)N1CCC[C@H]1C(=O)NCCCC[C@H](NC(=O)[C@@H]1CCCN1C(=O)[C@H](Cc1ccccc1)NC(=O)[C@H](CC(=O)O)NC(=O)CNC(=O)[C@H](CCCN=C(N)N)NC(=O)CCCCC)C(N)=O (I: Hexanoyl-RGDFPK-NH2 / II: Hexanoyl-RGDFP; amide I:6-II:C)
20 | 5.70 | N=C(N)NCCC[C@H](NC(=O)C1Cc2ccccc2OC1=O)C(=O)NCC(=O)N[C@@H](CC(=O)O)C(=O)N[C@@H](Cc1ccccc1)C(=O)N1CCC[C@H]1C(=O)NCCCC[C@H](NC(=O)[C@@H]1CCCN1C(=O)[C@H](Cc1ccccc1)NC(=O)[C@H](CC(=O)O)NC(=O)CNC(=O)[C@H](CCCNC(=N)N)NC(=O)C1Cc2ccccc2OC1=O)C(N)=O (stereo partly specified) (I: X2-RGDFPK-NH2 / II: X2-RGDFP; amide I:6-II:C)
21 | 7.06 | N=C(N)NCCC[C@H](NC(=O)[C@H](CO)NC(=O)c1ccc(NC(=N)N)cc1)C(=O)NCC(=O)N[C@@H](CC(=O)O)C(=O)N[C@@H](Cc1ccccc1)C(=O)N1CCC[C@H]1C(=O)NCCCC[C@H](NC(=O)[C@@H]1CCCN1C(=O)[C@H](Cc1ccccc1)NC(=O)[C@H](CC(=O)O)NC(=O)CNC(=O)[C@H](CCCNC(=N)N)NC(=O)[C@H](CO)NC(=O)c1ccc(NC(=N)N)cc1)C(N)=O (I: {Benzoyl(4-guanidino)}-SRGDFPK-NH2 / II: {Benzoyl(4-guanidino)}-SRGDFP; amide I:7-II:C)
